“And” between values parts separate entries of the source, which are not always exact repeats. Equal values may be shown once. Results filed as inconclusive are left out.
System: BDF1 mice, Friend leukemia sc, tumor weight T/C
Test: NCI In Vivo Anticancer Drug Screen. Data for tumor model Friend Virus Leukemia (Solid) (subcutaneous) in B6D2F1 (BDF1) mice
Details: endpoint: mean tumor weight, higher = larger tumour
Experimental: The antitumor activity of compounds was measured in mice bearing transplantable tumors. Survival or tumor size were measured and the results are expressed as the measurement made in the treated group (T) divided by the measurement made in the vehicle treated control group (C). The tumor model used in this assay is Friend Virus Leukemia (Solid) (subcutaneous) in B6D2F1 (BDF1) mice

[1] = dose: 26.0 mg/kg/injection, schedule: Q01DX011 (ip), vehicle: carboxymethylcellulose (CMC)
[2] = dose: 125.0 mg/kg/injection, schedule: Q01DX011 (ip), vehicle: carboxymethylcellulose (CMC)
[3] = dose: 500.0 mg/kg/injection, schedule: Q01DX011 (ip), vehicle: carboxymethylcellulose (CMC)
[4] = dose: 5.0 mg/kg/injection, schedule: Q01DX011 (ip), vehicle: carboxymethylcellulose (CMC)
[5] = dose: 6.0 mg/kg/injection, schedule: Q01DX011 (ip), vehicle: carboxymethylcellulose (CMC)
[6] = dose: 10.0 mg/kg/injection, schedule: Q01DX011 (ip), vehicle: saline
[7] = dose: 15.0 mg/kg/injection, schedule: Q01DX011 (ip), vehicle: saline
[8] = dose: 25.0 mg/kg/injection, schedule: Q01DX011 (ip), vehicle: saline
[9] = dose: 50.0 mg/kg/injection, schedule: Q01DX011 (ip), vehicle: carboxymethylcellulose (CMC)
[10] = dose: 100.0 mg/kg/injection, schedule: Q01DX011 (ip), vehicle: carboxymethylcellulose (CMC)
[11] = dose: 31.0 mg/kg/injection, schedule: Q01DX011 (ip), vehicle: carboxymethylcellulose (CMC)
[12] = dose: 62.5 mg/kg/injection, schedule: Q01DX011 (ip), vehicle: carboxymethylcellulose (CMC)
[13] = dose: 250.0 mg/kg/injection, schedule: Q01DX011 (ip), vehicle: carboxymethylcellulose (CMC)
[14] = dose: 25.0 mg/kg/injection, schedule: Q01DX011 (ip), vehicle: carboxymethylcellulose (CMC)
[15] = dose: 15.0 mg/kg/injection, schedule: Q01DX011 (ip), vehicle: carboxymethylcellulose (CMC)

SMILES: O=NN1CCN(N=O)CC1
- T/C (dose: 8.3 mg/kg/injection, schedule: Q01DX011 (ip), vehicle: carboxymethylcellulose (CMC)): 94 % of control
- T/C (dose: 16.7 mg/kg/injection, schedule: Q01DX011 (ip), vehicle: carboxymethylcellulose (CMC)): 120 % of control
- T/C (dose: 23.5 mg/kg/injection, schedule: Q01DX011 (ip), vehicle: carboxymethylcellulose (CMC)): 95 % of control
- T/C [1]: 85 % of control

SMILES: COc1ccc2c3c1OC1C(O)C=CC4C(C2)N(C)CCC341 (stereo unspecified)
- T/C (dose: 37.5 mg/kg/injection, schedule: Q01DX011 (ip), vehicle: saline): 93 % of control
- T/C (dose: 50.0 mg/kg/injection, schedule: Q01DX011 (ip), vehicle: saline): 119 % of control
- T/C (dose: 75.0 mg/kg/injection, schedule: Q01DX011 (ip), vehicle: saline): 108 % of control

SMILES: O=C(Nc1ccc(C2=NCCN2)cc1)c1ccc(C(=O)Nc2ccc(C3=NCCN3)cc2)c(NC(=O)c2ccc(C(=O)Nc3cc(C(=O)Nc4ccc(C5=NCCN5)cc4)ccc3C(=O)Nc3ccc(C4=NCCN4)cc3)cc2)c1
- T/C [2]: 161 % of control
- T/C [3]: 115 % of control

SMILES: O=C(Nc1ccc(C2=NCCCN2)cc1)c1ccc(C(=O)Nc2ccc(C3=NCCCN3)cc2)cc1
- T/C (dose: 0.75 mg/kg/injection, schedule: Q01DX011 (ip), vehicle: carboxymethylcellulose (CMC)): 121 % of control
- T/C (dose: 1.5 mg/kg/injection, schedule: Q01DX011 (ip), vehicle: carboxymethylcellulose (CMC)): 102 % of control
- T/C (dose: 3.0 mg/kg/injection, schedule: Q01DX011 (ip), vehicle: carboxymethylcellulose (CMC)): 44 % of control
- T/C (dose: 3.75 mg/kg/injection, schedule: Q01DX011 (ip), vehicle: carboxymethylcellulose (CMC)): 75 % of control
- T/C [4]: 42 % of control
- T/C [5]: 64 % of control
- T/C (dose: 7.5 mg/kg/injection, schedule: Q01DX011 (ip), vehicle: carboxymethylcellulose (CMC)): 10 % of control

SMILES: NC(=O)/C=C/C(=O)O (tested in a mixture with another compound)
- T/C (dose: 7.5 mg/kg/injection, schedule: Q#A X022 (ip), vehicle: carboxymethylcellulose (CMC)): 78 % of control
- T/C (dose: 15.5 mg/kg/injection, schedule: Q#A X022 (ip), vehicle: carboxymethylcellulose (CMC)): 66 % of control

SMILES: CCOc1ccc(Nc2ncnc3nc[nH]c23)cc1CN(CCCl)CCCl
- T/C (dose: 1.0 mg/kg/injection, schedule: Q01DX011 (ip), vehicle: saline): 101 % of control
- T/C (dose: 4.0 mg/kg/injection, schedule: Q01DX011 (ip), vehicle: saline): 70 % of control

SMILES: Cc1cc(N(CCCl)CCCl)ccc1C=Nc1ccccc1-c1ccccc1
- T/C [4]: 54 % of control
- T/C (dose: 10.0 mg/kg/injection, schedule: Q01DX011 (ip), vehicle: carboxymethylcellulose (CMC)): 70 % of control
- T/C (dose: 20.0 mg/kg/injection, schedule: Q01DX011 (ip), vehicle: carboxymethylcellulose (CMC)): 104 % of control
- T/C (dose: 40.0 mg/kg/injection, schedule: Q01DX011 (ip), vehicle: carboxymethylcellulose (CMC)): 60 % of control
- T/C (dose: 80.0 mg/kg/injection, schedule: Q01DX011 (ip), vehicle: carboxymethylcellulose (CMC)): 77 % of control

SMILES: Cc1cc(N(CCCl)CCCl)ccc1N=Nc1ccccc1C(=O)O
- T/C (dose: 5.0 mg/kg/injection, schedule: Q01DX011 (ip), vehicle: saline): 111 % of control
- T/C (dose: 7.5 mg/kg/injection, schedule: Q01DX011 (ip), vehicle: saline): 111 % of control
- T/C [6]: 105 % of control
- T/C [7]: 60 % of control and 73 % of control
- T/C [8]: 21 % of control
- T/C (dose: 30.0 mg/kg/injection, schedule: Q01DX011 (ip), vehicle: saline): 20 % of control

SMILES: Clc1ncnc2nc[nH]c12
- T/C [9]: 71 % of control
- T/C [10]: 47 % of control
- T/C (dose: 200.0 mg/kg/injection, schedule: Q01DX011 (ip), vehicle: carboxymethylcellulose (CMC)): 18 % of control

SMILES: N#[N+]c1cnc([O-])[nH]c1=O
- T/C (dose: 1.3 mg/kg/injection, schedule: Q01DX011 (ip), vehicle: carboxymethylcellulose (CMC)): 113 % of control
- T/C (dose: 11.5 mg/kg/injection, schedule: Q01DX011 (ip), vehicle: carboxymethylcellulose (CMC)): 49 % of control

SMILES: C[C@H]1C(=O)O[C@@H]2CCN3CC=C(COC(=O)[C@](C)(O)[C@@]1(C)O)[C@H]23
- T/C [11]: 95 % of control
- T/C [12]: 61 % of control
- T/C [2]: 66 % of control
- T/C [13]: 38 % of control

SMILES: O=[n+]1c2c(n([O-])c3ccccc31)-c1cccc3cccc-2c13
- T/C [14]: 87 % of control
- T/C [9]: 55 % of control
- T/C [10]: 43 % of control

SMILES: O=C1C(=O)C(Cl)=C(Cl)C(Cl)=C1Cl
- T/C [15]: 108 % of control
- T/C (dose: 30.0 mg/kg/injection, schedule: Q01DX011 (ip), vehicle: carboxymethylcellulose (CMC)): 90 % of control
- T/C (dose: 60.0 mg/kg/injection, schedule: Q01DX011 (ip), vehicle: carboxymethylcellulose (CMC)): 89 % of control

SMILES: CN1CCC23c4c5ccc(O)c4OC2C(O)C=CC3C1C5 (stereo unspecified)
- T/C (dose: 62.0 mg/kg/injection, schedule: Q01DX011 (ip), vehicle: saline): 116 % of control
- T/C (dose: 125.0 mg/kg/injection, schedule: Q01DX011 (ip), vehicle: saline): 172 % of control
- T/C (dose: 250.0 mg/kg/injection, schedule: Q01DX011 (ip), vehicle: saline): 118 % of control

SMILES: c1ccc2c(c1)ccc1cc3c(ccc4ccccc43)cc12
- T/C [15]: 90 % of control
- T/C [11]: 86 % of control
- T/C [12]: 39 % of control
- T/C (dose: 63.0 mg/kg/injection, schedule: Q01DX011 (ip), vehicle: carboxymethylcellulose (CMC)): 93 % of control
- T/C [13]: 52 % of control
- T/C [3]: 29 % of control

SMILES: O=NN(CCCl)C(=O)NCCCl
- T/C (dose: 0.81 mg/kg/injection, schedule: Q01DX011 (ip), vehicle: saline): 112 % of control
- T/C (dose: 1.62 mg/kg/injection, schedule: Q01DX011 (ip), vehicle: saline): 102 % of control
- T/C (dose: 3.25 mg/kg/injection, schedule: Q01DX011 (ip), vehicle: saline): 54 % of control
- T/C (dose: 6.5 mg/kg/injection, schedule: Q01DX011 (ip), vehicle: saline): 39 % of control
- T/C [6]: 88 % of control
- T/C [7]: 51 % of control
- T/C [8]: 4 % of control

SMILES: Clc1ccc(C(c2ccccc2Cl)C(Cl)Cl)cc1 (stereo unspecified)
- T/C (dose: 375.0 mg/kg/injection, schedule: Q01DX011 (sc), vehicle: steriod suspending solution): 163 % of control
- T/C (dose: 500.0 mg/kg/injection, schedule: Q01DX011 (sc), vehicle: steriod suspending solution): 210 % of control
- T/C (dose: 750.0 mg/kg/injection, schedule: Q01DX011 (sc), vehicle: steriod suspending solution): 155 % of control

SMILES: O=CCC(O)C(O)C(O)CO (stereo unspecified)
- T/C [2]: 89 % of control
- T/C [13]: 83 % of control
- T/C [3]: 48 % of control
- T/C (dose: 1000.0 mg/kg/injection, schedule: Q01DX011 (ip), vehicle: carboxymethylcellulose (CMC)): 63 % of control

SMILES: CC(C)(C)c1ccc(S)cc1
- T/C [14]: 181 % of control
- T/C [9]: 121 % of control
- T/C [10]: 85 % of control

SMILES: CCN(CC)CCNc1ccc(C)c2sc3ccccc3c(=O)c12
- T/C (dose: 1.0 mg/kg/injection, schedule: Q01DX011 (ip), vehicle: carboxymethylcellulose (CMC)): 184 % of control
- T/C [5]: 199 % of control
- T/C (dose: 6.25 mg/kg/injection, schedule: Q01DX011 (ip), vehicle: carboxymethylcellulose (CMC)): 37 % of control
- T/C (dose: 8.0 mg/kg/injection, schedule: Q01DX011 (ip), vehicle: carboxymethylcellulose (CMC)): 174 % of control
- T/C (dose: 8.1 mg/kg/injection, schedule: Q01DX011 (ip), vehicle: carboxymethylcellulose (CMC)): 199 % of control
- T/C (dose: 12.5 mg/kg/injection, schedule: Q01DX011 (ip), vehicle: carboxymethylcellulose (CMC)): 35 % of control
- T/C (dose: 16.0 mg/kg/injection, schedule: Q01DX011 (ip), vehicle: carboxymethylcellulose (CMC)): 274 % of control
- T/C (dose: 16.2 mg/kg/injection, schedule: Q01DX011 (ip), vehicle: carboxymethylcellulose (CMC)): 179 % of control
- T/C [1]: 111 % of control
- T/C (dose: 32.0 mg/kg/injection, schedule: Q01DX011 (ip), vehicle: carboxymethylcellulose (CMC)): 66 % of control
- T/C (dose: 33.0 mg/kg/injection, schedule: Q01DX011 (ip), vehicle: carboxymethylcellulose (CMC)): 69 % of control
- T/C (dose: 43.0 mg/kg/injection, schedule: Q01DX011 (ip), vehicle: carboxymethylcellulose (CMC)): 72 % of control
- T/C [9]: 31 % of control and 32 % of control
- T/C (dose: 75.0 mg/kg/injection, schedule: Q01DX011 (ip), vehicle: carboxymethylcellulose (CMC)): 3 % of control and 7 % of control
